Measured values: ChEMBL document CHEMBL1201862, “PubChem BioAssay data set” (2004)
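Results reflect a 48-hour exposure of cells in 96-well plates to compound at five concentrations. Abbreviation: GI50, concentration required for 50% inhibition of growth.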 The source made the active and inactive calls. Cut-off read from the data, not from the text of the source: active = GI50 up to about 1.1 µM and inactive = higher.

How the values were obtained:
Experiment in all cases: NCI-60 cell line screen, 48 h
A498 = system: A498
A549 = system: A549
ACHN = system: ACHN
CCRF-CEM = system: CCRF-CEM
DMS-114 = system: DMS-114
EKVX = system: EKVX
HCT-116 = system: HCT-116
HL-60 = system: HL-60
HOP-62 = system: HOP-62
HOP-92 = system: HOP-92
HT-29 = system: HT-29
IGROV-1 = system: IGROV-1
K562 = system: K562
KM12 = system: KM12
M14 = system: M14
M19-MEL = system: M19-MEL
MOLT-4 = system: MOLT-4
NCI-H226 = system: NCI-H226
NCI-H23 = system: NCI-H23
NCI-H460 = system: NCI-H460
NCI-H522 = system: NCI-H522
OVCAR-5 = system: OVCAR-5
OVCAR-8 = system: OVCAR-8
RXF 393 = system: RXF 393
RXF 631 = system: RXF 631
SF-295 = system: SF-295
SK-MEL-28 = system: SK-MEL-28
SK-OV-3 = system: SK-OV-3
SNB-19 = system: SNB-19
SNB-78 = system: SNB-78
SR = system: SR
TK-10 = system: TK-10
U-251 = system: U-251
UACC-257 = system: UACC-257
UACC-62 = system: UACC-62
UO-31 = system: UO-31
786-0 = system: 786-0
BT-549 = system: BT-549
CAKI-1 = system: CAKI-1
COLO 205 = system: COLO 205
DLD-1 = system: DLD-1
DMS-273 = system: DMS-273
DU-145 = system: DU-145
HCC 2998 = system: HCC 2998
HCT-15 = system: HCT-15
HOP-18 = system: HOP-18
Hs-578T = system: Hs-578T
KM-20L2 = system: KM-20L2
LOX IMVI = system: LOX IMVI
LXFL 529 = system: LXFL 529
MCF7 = system: MCF7
MDA-MB-231 = system: MDA-MB-231
MDA-MB-435 = system: MDA-MB-435
MDA-N = system: MDA-N
Malme-3M = system: Malme-3M
NCI/ADR-RES = system: NCI/ADR-RES
OVCAR-3 = system: OVCAR-3
OVCAR-4 = system: OVCAR-4
PC-3 = system: PC-3
RPMI-8226 = system: RPMI-8226
SF-268 = system: SF-268
SF-539 = system: SF-539
SK-MEL-2 = system: SK-MEL-2
SK-MEL-5 = system: SK-MEL-5
SN12C = system: SN12C
SNB-75 = system: SNB-75
SW-620 = system: SW-620
T47D = system: T47D
XF498 = system: XF498

## C[C@H]1C(=O)c2c(cc(O)c(C3OC(CO)C(O)C(O)C3O)c2O)OC1c1ccc(O)c(O)c1 (stereo partly drawn)
A498
  GI50: > 100 µM (inactive)
A549
  GI50: > 100 µM (inactive)
ACHN
  GI50: > 100 µM (inactive)
CCRF-CEM
  GI50: > 100 µM (inactive)
DMS-114
  GI50: > 100 µM (inactive)
EKVX
  GI50: > 100 µM (inactive)
HCT-116
  GI50: > 100 µM (inactive)
HL-60
  GI50: > 100 µM (inactive)
HOP-62
  GI50: > 100 µM (inactive)
HOP-92
  GI50: > 100 µM (inactive)
HT-29
  GI50: > 100 µM (inactive)
IGROV-1
  GI50: > 100 µM (inactive)
K562
  GI50: > 10 µM (inactive)
KM12
  GI50: > 100 µM (inactive)
M14
  GI50: > 100 µM (inactive)
M19-MEL
  GI50: > 100 µM (inactive)
MOLT-4
  GI50: > 100 µM (inactive)
NCI-H226
  GI50: 64.9 µM (inactive)
NCI-H23
  GI50: > 100 µM (inactive)
NCI-H460
  GI50: > 100 µM (inactive)
NCI-H522
  GI50: > 100 µM (inactive)
OVCAR-5
  GI50: > 100 µM (inactive)
OVCAR-8
  GI50: > 100 µM (inactive)
RXF 393
  GI50: > 100 µM (inactive)
RXF 631
  GI50: > 100 µM (inactive)
SF-295
  GI50: > 100 µM (inactive)
SK-MEL-28
  GI50: > 100 µM (inactive)
SK-OV-3
  GI50: > 100 µM (inactive)
SNB-19
  GI50: > 100 µM (inactive)
SNB-78
  GI50: > 100 µM (inactive)
SR
  GI50: > 100 µM (inactive)
TK-10
  GI50: > 100 µM (inactive)
U-251
  GI50: > 100 µM (inactive)
UACC-257
  GI50: > 100 µM (inactive)
UACC-62
  GI50: > 100 µM (inactive)
UO-31
  GI50: > 100 µM (inactive)

## CC[C@@]1(OC(=O)C(N)CCC(=O)O)C(=O)OCc2c1cc1n(c2=O)Cc2cc3ccccc3nc2-1 (stereo partly drawn)
786-0
  GI50: 0.0206 µM (active)
A498
  GI50: 0.187 µM (active)
A549
  GI50: 0.0348 µM (active)
ACHN
  GI50: 0.0187 µM (active)
BT-549
  GI50: 733 nM (active)
CAKI-1
  GI50: < 0.0182 µM (active)
CCRF-CEM
  GI50: < 0.01 µM (active)
COLO 205
  GI50: 0.667 µM (active)
DLD-1
  GI50: 1.48 µM (inactive)
DMS-114
  GI50: 0.0493 µM (active)
DMS-273
  GI50: 0.0183 µM (active)
DU-145
  GI50: < 10 nM (active)
EKVX
  GI50: 1.44 µM (inactive)
HCC 2998
  GI50: 0.461 µM (active)
HCT-116
  GI50: 0.122 µM (active)
HCT-15
  GI50: 453 nM
HL-60
  GI50: 0.0208 µM (active)
HOP-18
  GI50: 217 nM (active)
HOP-62
  GI50: < 0.0124 µM (active)
HOP-92
  GI50: 0.615 µM (active)
HT-29
  GI50: 0.261 µM (active)
Hs-578T
  GI50: 7.05 µM (inactive)
IGROV-1
  GI50: 0.513 µM (active)
K562
  GI50: 0.314 µM (active)
KM-20L2
  GI50: 0.474 µM (active)
LOX IMVI
  GI50: 19.6 nM (active)
LXFL 529
  GI50: 1.38 µM (inactive)
M14
  GI50: 0.0347 µM (active)
M19-MEL
  GI50: 0.189 µM (active)
MCF7
  GI50: < 10 nM (active)
MDA-MB-231
  GI50: 1.63 µM (inactive)
MDA-MB-435
  GI50: 219 nM (active)
MDA-N
  GI50: 314 nM (active)
MOLT-4
  GI50: 0.0106 µM (active)
Malme-3M
  GI50: 0.266 µM (active)
NCI-H226
  GI50: 0.0502 µM (active)
NCI-H23
  GI50: 0.0345 µM (active)
NCI-H460
  GI50: 0.0112 µM (active)
NCI-H522
  GI50: 0.0536 µM (active)
NCI/ADR-RES
  GI50: < 10 nM (active)
OVCAR-3
  GI50: 0.417 µM (active)
OVCAR-4
  GI50: 1.24 µM (inactive)
OVCAR-5
  GI50: 0.248 µM (active)
OVCAR-8
  GI50: 0.117 µM (active)
PC-3
  GI50: 194 nM (active)
RPMI-8226
  GI50: 0.148 µM (active)
RXF 393
  GI50: 0.147 µM (active)
SF-268
  GI50: 0.0256 µM (active)
SF-295
  GI50: 0.0213 µM (active)
SF-539
  GI50: 0.018 µM (active)
SK-MEL-28
  GI50: 1.35 µM (inactive)
SK-MEL-2
  GI50: 1.12 µM (active)
SK-MEL-5
  GI50: 0.0736 µM (active)
SK-OV-3
  GI50: 0.0553 µM (active)
SN12C
  GI50: 0.0244 µM (active)
SNB-19
  GI50: 0.0541 µM (active)
SNB-75
  GI50: 0.0526 µM (active)
SNB-78
  GI50: 1.82 µM (inactive)
SW-620
  GI50: 0.179 µM (active)
T47D
  GI50: 26.7 nM (active)
TK-10
  GI50: 4.33 µM (inactive)
U-251
  GI50: 0.0202 µM (active)
UACC-257
  GI50: 0.228 µM (active)
UACC-62
  GI50: < 0.0152 µM (active)
UO-31
  GI50: 0.0493 µM (active)
XF498
  GI50: 197 nM (active)

## COc1ccc(/C=C(/C(=O)O)c2cc(OC)c(OC)c(OC)c2)cc1
786-0
  GI50: 41.3 µM (inactive)
A498
  GI50: 52.4 µM (inactive)
A549
  GI50: 56.1 µM (inactive)
ACHN
  GI50: > 100 µM (inactive)
CAKI-1
  GI50: 44.9 µM (inactive)
CCRF-CEM
  GI50: 43.1 µM (inactive)
COLO 205
  GI50: 33.3 µM (inactive)
DLD-1
  GI50: 41.2 µM (inactive)
DMS-114
  GI50: 40.2 µM (inactive)
DMS-273
  GI50: 31.6 µM (inactive)
EKVX
  GI50: > 100 µM (inactive)
HCC 2998
  GI50: > 100 µM (inactive)
HCT-116
  GI50: 53.3 µM (inactive)
HOP-62
  GI50: 35 µM (inactive)
HOP-92
  GI50: > 100 µM (inactive)
HT-29
  GI50: 42.1 µM (inactive)
IGROV-1
  GI50: > 100 µM (inactive)
K562
  GI50: 38.5 µM (inactive)
KM-20L2
  GI50: 22.2 µM (inactive)
KM12
  GI50: 63 µM (inactive)
LXFL 529
  GI50: 69.2 µM (inactive)
M14
  GI50: 24.2 µM (inactive)
M19-MEL
  GI50: 79.8 µM (inactive)
MOLT-4
  GI50: 45.4 µM (inactive)
Malme-3M
  GI50: 30.1 µM (inactive)
NCI-H226
  GI50: 44.8 µM (inactive)
NCI-H23
  GI50: 27.2 µM (inactive)
NCI-H460
  GI50: 48.1 µM (inactive)
NCI-H522
  GI50: 16.8 µM (inactive)
OVCAR-3
  GI50: 23.7 µM (inactive)
OVCAR-4
  GI50: 41.4 µM (inactive)
OVCAR-5
  GI50: > 100 µM (inactive)
OVCAR-8
  GI50: 63.5 µM (inactive)
RPMI-8226
  GI50: 33.8 µM (inactive)
RXF 631
  GI50: 46.8 µM (inactive)
SF-268
  GI50: 70.1 µM (inactive)
SF-539
  GI50: 19.3 µM (inactive)
SK-MEL-28
  GI50: 61.9 µM (inactive)
SK-MEL-2
  GI50: 47.5 µM (inactive)
SK-MEL-5
  GI50: 41.1 µM (inactive)
SK-OV-3
  GI50: > 100 µM (inactive)
SN12C
  GI50: 46.9 µM (inactive)
SNB-19
  GI50: 59.4 µM (inactive)
SNB-75
  GI50: 21.6 µM (inactive)
SNB-78
  GI50: 35.8 µM (inactive)
SR
  GI50: 43.3 µM (inactive)
SW-620
  GI50: 61 µM (inactive)
U-251
  GI50: 35.2 µM (inactive)
UACC-257
  GI50: 31.5 µM (inactive)
UACC-62
  GI50: 43.6 µM (inactive)
UO-31
  GI50: 39.5 µM (inactive)
